Assays:
HIV-DNA 2-LTR circles = experiment: Quantification of 2-LTR products in infected MT-2 cells (real time PCR); assay type: cell-based, HIV-1; details: for 2-LTR/HIV-DNA ratio drug vs no-drug: NL4-3 M.O.I. 0.05, 24 hours, drug 28 1000 nM, 31 3000 nM, 23 5000 nM, Raltegravir 1000 nM
Description: During the replication cycle of HIV, several forms of episomic HIV-DNA can be found in the nucleous as a result of abortive integration events in the genome of the cells. Unintegrated HIV-DNA forms such 2-LTR circles are considered as a marker of ongoing replication and can be easily detected and quantified through real time PCR systems. […] Therefore, the quantification of 2-LTR circles can be used as an indirect method to test the blockade of the integration step by a candidate or licensed integrase inhibitors (Reigadas S. et al, J. Antimicrob. Chemother. 2010; 65: 434-437).
Since NCp7 partecipates to several steps of HIV replication including integration, it was developed a cell based assay aimed at the quantification of 2-LTR circles in infected cells cultured in presence of inhibitory concentrations of candidate NCp7 inhibitors. In each culture 3x10^6 MT-2 cells were infected with HIV-1 reference strain NL4-3 at M.O.I. 0.05 in presence of investigational NCp7 inhibitors 23, 31, 28. A culture with the HIV-1 Integrase inhibitor Raltegravir™ was prepared as a reference for the inhibition of integration, while an infected culture without drugs (named "no-drug") was used to compare the amount of 2-LTR in the different cultures. Table 7 indicates the concentration of drugs used in each culture in comparison to the values of EC50 (calculated through the BiCycle Assay) and the values of TD50. Table 7. Concentration of drugs used [c] in comparison to the values of EC50 (calculated through the BiCycle Assay) and the values of TD50.
Cultures were incubated at 37°C and 5% CO2 for 24 hours, then cells were harvested and total DNA was extracted using the "MagCore® Genomic DNA Whole Blood Kit" automated system (Diatech).
Around 500 ng of extracted DNA were used in separated real time PCR reactions specific for the quantification of the total genomic and HIV-1 DNA, and the HIV-DNA 2-LTR circles, respectively. Both values were normalized as copies/10^6 cells according to β-globin gene quantification included in the first method. For each culture a ratio between 2-LTR/ total HIV-DNA circles was calculated and compared to the ratio obtained with the "no-drug" culture. Table 8. 2-LTR assay results

HIV-1 integrase = molecular target: T1, HIV-1 integrase (Human immunodeficiency virus type 1 group M subtype B, UniProt P04585); experiment: HIV-integrase assay (strand transfer kit); assay type: biochemical
T1 construct: Full-length recombinant HIV-1 integrase protein was loaded onto the DS DNA substrate; purchased Xpress Bio Co EZ-1700
Protocol: The integrase assay was performed using the HIV-1 integrase assay kit (Xpress Bio Co, catalog number EZ-1700, Thurmont, MD) according to the manufacturer's instructions. In this assay the streptavidin-coated 96-well plates were used and coated with a double stranded HIV-1 LTR U5 donor substrate (DS) DNA containing an end-labeled biotin. Full-length recombinant HIV-1 integrase protein was loaded onto the DS DNA substrate. After, the compounds were added in the concentration 5 - 1500 µM, and then a different double-stranded target substrate (TS) DNA containing a 3'-end modification was added to the reaction mixture. The HIV-1 integrase cleaved the terminal two bases from the exposed 3'-end of the HIV-1 LTR DS DNA and then catalyzed a strand-transfer recombination reaction to integrate the DS DNA into the TS DNA. The products of the reaction were detected colorimetrically using an HRP-labeled antibody directed against TS 3'-end modification. […] The percentage of DMSO was fixed at 2.5% v/v in all samples. The absorbance at 450 nm was recorded with an iMark™ Microplate Absorbance Reader (Bio-Rad Laboratories). The absorbance values were corrected from the mean blank absorbance (reaction buffer negative control). To calculate the IC50 values, the experimental data were fitted in a logarithm scale using Origin software (Dose response fitting).

ARP clone 11845 (INI) = experiment: BiCycle assay, resistant viral strain; assay type: cell-based, HIV-1; details: IC50 resistant strain / IC50 wild type NL4-3, BiCycle Assay
Protocol: (§1) BiCycle Assay is cell based assay allowing the evaluation of the antiviral activity of HIV-1 inhibitors on the whole replication cycle of HIV-1. The assay consists in a first round of infection of the T-cell line MT-2 followed by infection of TZM-bl cells. MT-2 cells were seeded at a concentration of 50,000 cells/well in a 96-well plate and infected with the HIV-1 reference strain NL4-3 in presence of five-fold dilutions of the investigational compounds. After 72 hours, 50 µl of supernatant from each well, containing the virus produced in the first round of infection, were used to infect TZM-bl cells seeded in a 96-plate well at a concentration of 30,000 cells/well. Two days later, cells were lysed adding 40 µl of Glo Lysis Buffer (Promega) to each well for 5 minutes, then 40 µl of Brighy-Glo Luciferase Reagent (Promega) were added to each well for relative luminescence units (RLU) counting using Glo-Max Multi Detection System (Promega). RLU values from each well were elaborated using the GraphPad v5.0 software to calculate the IC50 of each compound.
(§2) The antiviral activity of some of the compounds listed in Table 3 was further evaluated determining the IC50 with viruses carrying resistant mutations that reduce the susceptibility to drugs currently employed in clinical practice to treat HIV infection. The resistant viruses were obtained through the NIH AIDS Reagent Program (www.aidsreagent.org) and have been already characterized by the Phenosense Assay (Monogram Biosciences), considered as the reference assay for phenotypic investigation of HIV drug resistance due to its large application in clinical trials.
(§3) IC50 values of resistant viral strains were determined by using the BiCycle Assay as previously described. The results of the analysis are summarized in Table 6, where fold change values are calculated as the ratio between the IC50 values of resistant HIV-1 strains and the IC50 value of the wild type reference HIV-1 strain NL4-3. Table 6. Fold change values of resistant viral strains

ARP clone 12231 (NNRTI) = experiment: BiCycle assay, resistant viral strain; assay type: cell-based, HIV-1; details: IC50 resistant strain / IC50 wild type NL4-3, BiCycle Assay
Protocol: as §1, §2, §3

ARP clone 7400 (NRTI) = experiment: BiCycle assay, resistant viral strain; assay type: cell-based, HIV-1; details: IC50 resistant strain / IC50 wild type NL4-3, BiCycle Assay
Protocol: as §1, §2, §3

ARP clone 12465 (PI) = experiment: BiCycle assay, resistant viral strain; assay type: cell-based, HIV-1; details: IC50 resistant strain / IC50 wild type NL4-3, BiCycle Assay
Protocol: as §1, §2, §3

ARP clone 11842 (INI) = experiment: BiCycle assay, resistant viral strain; assay type: cell-based, HIV-1; details: IC50 resistant strain / IC50 wild type NL4-3, BiCycle Assay
Protocol: as §1, §2, §3

ARP clone 7401 (NRTI) = experiment: BiCycle assay, resistant viral strain; assay type: cell-based, HIV-1; details: IC50 resistant strain / IC50 wild type NL4-3, BiCycle Assay
Protocol: as §1, §2, §3

ARP clone 12229 (NNRTI) = experiment: BiCycle assay, resistant viral strain; assay type: cell-based, HIV-1; details: IC50 resistant strain / IC50 wild type NL4-3, BiCycle Assay
Protocol: as §1, §2, §3

ARP clone 11808 (PI) = experiment: BiCycle assay, resistant viral strain; assay type: cell-based, HIV-1; details: IC50 resistant strain / IC50 wild type NL4-3, BiCycle Assay
Protocol: as §1, §2, §3

SMILES	titer / amounts of 2-LTR circles compared with "no-drug" culture (HIV-DNA 2-LTR circles; NL4-3, 24 hours)	2-LTR/HIV-DNA ratio drug vs no-drug (HIV-DNA 2-LTR circles)	inhibition at 0.175 µM (HIV-1 integrase; read-out: % of inhibition (positive control)) [%]	Fold change 11845 (INI) (ARP clone 11845 (INI))	Fold change 12231 (NNRTI) (ARP clone 12231 (NNRTI))	Fold change 7400 (NRTI) (ARP clone 7400 (NRTI))	Fold change 12465 (PI) (ARP clone 12465 (PI))	Fold change 11842 (INI) (ARP clone 11842 (INI))	Fold change 7401 (NRTI) (ARP clone 7401 (NRTI))	Fold change 12229 (NNRTI) (ARP clone 12229 (NNRTI))	Fold change 11808 (PI) (ARP clone 11808 (PI))	IC50 (HIV-1 integrase) [µM]	fold increase in IN IC50 values in comparison to NC Inhibition IC50 values (HIV-1 integrase) [fold]
Cc1nnc(C(=O)NC(C)(C)c2nc(C(=O)NCc3ccc(F)cc3)c(O)c(=O)n2C)o1 [Raltegravir™, Raltegravir, reference compound]	three times higher	2.9	≥ 97	–	–	–	–	–	–	–	–	–	–
COc1ccnc(-c2nc(O)c(O)c(C(=O)N[C@H](C)C3CCCCC3)n2)c1 [Compound 28, (R)-N-(1-cyclohexylethyl)-5,6-dihydroxy-2-(4-methoxypyridin-2-yl)pyrimidine-4-carboxamide]	–	1.3	–	2.3	2.8	0.8	3.7	2.9	0.8	0.1	1.4	84	3.8
CCNCc1ccc(-c2nc(O)c(O)c(C(=O)N[C@H](C)C3CCCCC3)n2)nc1 [Compound 60, (R)-N-(1-cyclohexylethyl)-2-(5-((ethylamino)methyl)pyridin-2-yl)-5,6-dihydroxypyrimidine-4-carboxamide]	–	–	–	–	–	–	–	–	–	–	–	10	2.9
Cc1cccnc1-c1nc(O)c(O)c(C(=O)N[C@H](C)C2CCCCC2)n1 [Compound 23, (R)-N-(1-cyclohexylethyl)-5,6-dihydroxy-2-(3-methylpyridin-2-yl)pyrimidine-4-carboxamide]	–	0.5	–	1.2	2.8	0.7	2.3	8.6	1.4	1.0	5.1	–	–
C[C@@H](NC(=O)c1nc(-c2cc(Cl)ccn2)nc(O)c1O)C1CCCCC1 [Compound 26, (R)-2-(4-chloropyridin-2-yl)-N-(1-cyclohexylethyl)-5,6-dihydroxypyrimidine-4-carboxamide]	–	–	–	0.7	0.8	0.3	0.5	–	0.1	–	0.2	150	100
O=C(NCC1CCCCC1)c1nc(-c2ccccn2)nc(O)c1O [Compound 1, N-(cyclohexylmethyl)-5,6-dihydroxy-2-(pyridin-2-yl)pyrimidine-4-carboxamide]	–	–	–	1.2	1.5	0.4	2.9	–	–	0.6	0.8	–	–
C[C@@H](NC(=O)c1nc(-c2nccc3ccccc23)nc(O)c1O)C1CCCCC1 [Compound 31, (R)-N-(1-cyclohexylethyl)-5,6-dihydroxy-2-(isoquinolin-1-yl)pyrimidine-4-carboxamide]	–	1.1	–	0.9	2.0	0.7	2.1	9.8	1.3	1.3	1.6	–	–

Source: patent EP3290412A1, “HIV-1 NUCLEOCAPSID INHIBITORS” (Università degli Studi di Siena, priority 2016, dated 2018)
